The text below walks through data of US7767645B2, “SH2 domain binding inhibitors” (The United States of America as represented by the …, priority 2003, dated 2010).

T1 sequence (P62993 60-152 limits assumed): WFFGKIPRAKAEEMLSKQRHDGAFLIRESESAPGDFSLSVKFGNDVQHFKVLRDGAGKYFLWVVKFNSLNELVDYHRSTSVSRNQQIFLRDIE

The first test concerns the target T1, Grb2 SH2 domain protein (b-Grb2) (Homo sapiens, UniProt P62993).
T1 construct: All Biotinylated Grb2 SH2 domain protein (b-Grb2) was expressed and purified; biotin (biotinylated)
The test is described as follows: Surface Plasmon Resonance (SPR) determination of Grb2 SH2 domain-binding Kd values. Particulars: BIACORE S51, immobilized biotinylated Grb2 SH2 domain, 25° C., PBS pH 7.4. As to the method:
Binding affinities were determined as follows. Surface Plasmon Resonance (SPR) Determination of Grb2 SH2 Domain-Binding Kd Values. Binding experiments were performed on a BIACORE S51 instrument (Biacore Inc., Piscataway N.J.). All Biotinylated Grb2 SH2 domain protein (b-Grb2) was expressed and purified (Protein Expression Laboratory and The Protein Chemistry Laboratory, SAIC—Frederick). The b-Grb2 was immobilized onto carboxymethyl 5′ dextran surface (CM5 sensor chip, Biacore Inc.) by amine coupling. The lyophilized b-Grb2 was reconstituted in fifty percent DMSO in H2O to make a stock solution of 1 mg/mL and stored at −80° C. A 1:12.5 dilution of b-Grb2 was used for immobilization and prepared by dilution in acetate buffer pH-5.0, with 5% DMSO. 1×PBS (phosphate buffered saline, pH 7.4) was used as the running buffer.
An immobilization wizard was used to facilitate immobilization targeting. For b-Grb2, 2500-5000 resonance units (RU) of protein were captured on the CM5 sensor chip. Small molecule ligands were serially diluted in running buffer to concentrations of 1.25 nM-1500 nM, as described in each sensorgram and injected at 25° C. at a flow rate of 30 μl/min for 1 minute and dissociation was monitored for an additional 3 minutes. Surface regeneration was not used. Samples of differing concentrations of small molecule ligands were injected in increasing concentration, with every injection being performed in duplicate within each experiment. In order to subtract background noise from each data set, all samples were also run over an unmodified reference surface and injections of running buffer were performed throughout every experiment (“double referencing”). Up to six data sets were fit to a simple 1:1 interaction model or to a surface heterogeneity model (“complex model”) for compound 41, using the global data analysis program CLAMP. Myszka, D. G.; Morton, T. A.; CLAMP: A biosensor kinetic data analysis program. Trends Biochem. Sci. 1998, 23, 149-150. The mean of the ratio and associated error were calculated according to known procedures. van Kempen, G. M.; van Vliet, L. J.; Mean and variance of ratio estimators used in fluorescence ratio imaging. Cytometry 2000, 39, 300-305.
A general note: Surface plasmon resonance follows binding to a sensor surface in real time, without labels.
With `Cc1ccc2c(ccn2CC2CC=CC(c3ccc(CP(=O)(O)O)cc3)C(CC(=O)O)C(=O)NC3(CCCCC3)C(=O)NC(CC(N)=O)C(=O)NC2)c1` (centres unmarked) [Compound 6], binding was put at a Kd of 1.67 nM. On the same count and under the same terms, with `Cc1ccc2c(ccn2CC2CC=CC(c3ccc(C(C(=O)O)C(=O)O)cc3)C(CC(=O)O)C(=O)NC3(CCCCC3)C(=O)NC(CC(N)=O)C(=O)NC2)c1` (centres unmarked) [Compound 32] the figure was 3.62 nM; with `Cc1ccc2c(ccn2CC2CC=CC(c3ccc(CP(=O)(O)Cc4ccccc4)cc3)C(CC(=O)O)C(=O)NC3(CCCCC3)C(=O)NC(CC(N)=O)C(=O)NC2)c1` (centres unmarked) [Compound 41], 35.3 nM. On the same count and under the same terms, with `Cc1ccc2c(ccn2CC2CC=CC(c3ccc(NC(=O)C(=O)O)cc3)C(CC(=O)O)C(=O)NC3(CCCCC3)C(=O)NC(CC(N)=O)C(=O)NC2)c1` (centres unmarked) [Compound 28] the figure was 67 nM.

A further test deals with T2, Grb2 SH2 domain-MBP fusion protein (Homo sapiens, UniProt P62993).
T2 construct: is added biotinylated Grb2 SH2 domain-MBP fusion protein; biotin (biotinylated)
T2 sequence (P62993 60-152 limits assumed): as above
The test is described as follows: ELISA-based determination of Grb2 SH2 domain-binding IC50 values. To be noted: competition with HRP-SA-biotinylated-phosphopeptide complex. The protocol: ELISA-Based Determination of Grb2 SH2 Domain-Binding IC50 Values. To multiwell plates pre-coated with streptavidin (SA) is added biotinylated Grb2 SH2 domain-MBP fusion protein. SH2 domain-fusion protein binds to the SA on the plate and unbound protein is then washed away and the plate is blocked using the commercial ELISA blocking agent, I-Block that contains detergent and casein (a milk protein). This blocking agent prevents subsequently-added constituents from sticking to the plastic well non-specifically. To the wells is then added horseradish peroxidase-(HRP)-SA-biotinylated-phosphopeptide as a pre-formed complex (termed “Complex”). [NOTE: The HRP-SA-biotinylated phosphopeptide complex is prepared ahead of time by combining a vast molar excess of SA-HRP with the biotinylated phosphopeptide to assure that all of the biotin sites are bound to SA-HRP before they are added to the well. This prevents those biotin sites from sticking to the SA coating on the plate, which would generate a signal even in the absence of biotinylated Grb2 SH2 domain-MBP fusion protein.] This complex binds to the Grb2 SH2 domain via the phosphopeptide. Unbound Complex is washed away before adding HRP substrate (OPD) to generate a color that is measured spectrophotometrically. Synthetic SH2 domain binding antagonists, at various concentrations, are added to wells in the presence of Complex to compete for HRP-SA-biotinylated-phosphopeptide binding to Grb2 SH2 domain protein. The intensity of the resulting color for each well as a function of the concentration of synthetic inhibitor added is recorded.
A general note: In an ELISA, binding on a coated surface is turned into a signal by an enzyme label.
As for `Cc1ccc2c(ccn2CC2CC=CC(c3ccc(CC(=O)O)cc3)C(CC(=O)O)C(=O)NC3(CCCCC3)C(=O)NC(CC(N)=O)C(=O)NC2)c1` (centres unmarked) [Compound 33], the IC50 – broadly, the midpoint of a concentration-inhibition curve – is 22.5 nM. As to `Cc1ccc2c(ccn2CC2CC=CC(c3ccc(C(C(=O)O)C(=O)O)cc3)C(CC(=O)O)C(=O)NC3(CCCCC3)C(=O)NC(CC(N)=O)C(=O)NC2)c1` (centres unmarked) [Compound 32], the IC50 was 3.3 nM.

With `Cc1ccc2c(ccn2CC2CC=CC(c3ccc(CP(=O)(O)Cc4ccccc4)cc3)C(CC(=O)O)C(=O)NC3(CCCCC3)C(=O)NC(CC(N)=O)C(=O)NC2)c1` (centres unmarked) [Compound 41], the IC50 was determined as 8.4 nM. Same read-out and setting: with `Cc1ccc2c(ccn2CC2CC=CC(c3ccc(NC(=O)C(=O)O)cc3)C(CC(=O)O)C(=O)NC3(CCCCC3)C(=O)NC(CC(N)=O)C(=O)NC2)c1` (centres unmarked) [Compound 28] the figure was 8.8 nM.
